Where “and” joins values, the source holds several entries; their conditions need not be identical. Identical values can stand only once.
Test system: 287954-098-R-J1 tumor spheroid viability
Experiment: Anticancer human tumor 287954-098-R-J1 patient-derived Ewing sarcoma cell line growth inhibition
Details: spheroids with HUVEC and MSC; for viability, T/C: stronger effect = lower value
Outline: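 Complex spheroids of malignant cells with endothelial cells and mesenchymal stem cells; agents alone or combined, from near clinical Cmax (or 10 microM if unknown) down in half-log steps, 0.25% DMSO final.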
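Further: spheroids exposed to compound for 7 days before viability readout.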
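Wherever viability, T/C is given: luminescent signal taken as surrogate of viable cell content; 100% = DMSO vehicle control viability and lower means growth inhibition.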

CC(C)n1c(=O)n(C)c2cnc3cc(F)c(-c4ccc(OCCCN5CCCCC5)nc4)cc3c21 + Cn1nnc2c(C(N)=O)ncn2c1=O
IC50 (curve of first compound, second compound 1 µM): > 10 µM
IC50 (curve of first compound, second compound 3.16 µM): > 10 µM
IC50 (curve of first compound, second compound 10 µM): > 10 µM
IC50 (curve of first compound, second compound 31.6 µM): > 10 µM
IC50 (curve of first compound, second compound 100 µM): > 10 µM
viability, T/C (second compound 1 µM, first compound 0.0316 µM): 97%
viability, T/C (second compound 1 µM, first compound 0.1 µM): 97.6%
viability, T/C (second compound 1 µM, first compound 0.316 µM): 110%
viability, T/C (second compound 1 µM, first compound 1 µM): 108%
viability, T/C (second compound 1 µM, first compound 3.16 µM): 105%
viability, T/C (second compound 1 µM, first compound 10 µM): 97.9%
viability, T/C (second compound 3.16 µM, first compound 0.0316 µM): 106%
viability, T/C (second compound 3.16 µM, first compound 0.1 µM): 110%
viability, T/C (second compound 3.16 µM, first compound 0.316 µM): 110%
viability, T/C (second compound 3.16 µM, first compound 1 µM): 112%
viability, T/C (second compound 3.16 µM, first compound 3.16 µM): 118%
viability, T/C (second compound 3.16 µM, first compound 10 µM): 85.9%
viability, T/C (second compound 10 µM, first compound 0.0316 µM): 109%
viability, T/C (second compound 10 µM, first compound 0.1 µM): 105%
viability, T/C (second compound 10 µM, first compound 0.316 µM): 104%
viability, T/C (second compound 10 µM, first compound 1 µM): 109%
viability, T/C (second compound 10 µM, first compound 3.16 µM): 118%
viability, T/C (second compound 10 µM, first compound 10 µM): 79.6%
viability, T/C (second compound 31.6 µM, first compound 0.0316 µM): 113%
viability, T/C (second compound 31.6 µM, first compound 0.1 µM): 110%
viability, T/C (second compound 31.6 µM, first compound 0.316 µM): 105%
viability, T/C (second compound 31.6 µM, first compound 1 µM): 113%
viability, T/C (second compound 31.6 µM, first compound 3.16 µM): 113%
viability, T/C (second compound 31.6 µM, first compound 10 µM): 85.2%
viability, T/C (second compound 100 µM, first compound 0.0316 µM): 92.5%
viability, T/C (second compound 100 µM, first compound 0.1 µM): 104%
viability, T/C (second compound 100 µM, first compound 0.316 µM): 94.3%
viability, T/C (second compound 100 µM, first compound 1 µM): 112%
viability, T/C (second compound 100 µM, first compound 3.16 µM): 109%
viability, T/C (second compound 100 µM, first compound 10 µM): 103%

Cc1sc2c(c1C)C(c1ccc(Cl)cc1)=NC(CC(=O)Nc1ccc(O)cc1)c1nnc(C)n1-2 (stereo not given)
viability, T/C (compound 0.00949 µM): 113% and 114% and 104%
viability, T/C (compound 0.03 µM): 113% and 116% and 107%
viability, T/C (compound 0.0949 µM): 116% and 126% and 112%
viability, T/C (compound 0.3 µM): 86.4% and 108% and 84.2%
viability, T/C (compound 0.949 µM): 41% and 29% and 17.1%
viability, T/C (compound 3 µM): 4.42% and 2.62% and 6.59%
IC50 (curve of compound): 0.747 µM and 0.699 µM and 0.539 µM

COc1ccc([C@@H](O)c2cc(-c3ncnc4cc(N5CCOCC5)ccc34)c(F)cc2Cl)nn1
viability, T/C (compound 0.0316 µM): 96.1% and 101% and 92.6%
viability, T/C (compound 0.1 µM): 96% and 113% and 96.1%
viability, T/C (compound 0.316 µM): 97% and 107% and 92.6%
viability, T/C (compound 1 µM): 105% (2×) and 102%
viability, T/C (compound 3.16 µM): 109% and 98.1% and 100%
viability, T/C (compound 10 µM): 103% and 87.1% and 82.1%
IC50 (curve of compound): > 10 µM

O=C(c1cc(Cc2n[nH]c(=O)c3ccccc23)ccc1F)N1CCN(C(=O)C2CC2)CC1 + CC[C@@]1(O)C(=O)OCc2c1cc1n(c2=O)Cc2cc3c(CN(C)C)c(O)ccc3nc2-1
IC50 (curve of first compound, second compound 0.003 µM): 5.24 µM
IC50 (curve of first compound, second compound 0.00949 µM): 3.84 µM
IC50 (curve of first compound, second compound 0.03 µM): < 0.0949 µM
IC50 (curve of first compound, second compound 0.0949 µM): < 0.0949 µM
IC50 (curve of first compound, second compound 0.3 µM): < 0.0949 µM
viability, T/C (second compound 0.003 µM, first compound 0.0949 µM): 93.7%
viability, T/C (second compound 0.003 µM, first compound 0.3 µM): 96.7%
viability, T/C (second compound 0.003 µM, first compound 0.949 µM): 96.2%
viability, T/C (second compound 0.003 µM, first compound 3 µM): 93.9%
viability, T/C (second compound 0.003 µM, first compound 9.49 µM): 3.33%
viability, T/C (second compound 0.003 µM, first compound 30 µM): 1.93%
viability, T/C (second compound 0.00949 µM, first compound 0.0949 µM): 92.9%
viability, T/C (second compound 0.00949 µM, first compound 0.3 µM): 95.3%
viability, T/C (second compound 0.00949 µM, first compound 0.949 µM): 82.9%
viability, T/C (second compound 0.00949 µM, first compound 3 µM): 63.2%
viability, T/C (second compound 0.00949 µM, first compound 9.49 µM): 1.84%
viability, T/C (second compound 0.00949 µM, first compound 30 µM): 1.78%
viability, T/C (second compound 0.03 µM, first compound 0.0949 µM): 2.21%
viability, T/C (second compound 0.03 µM, first compound 0.3 µM): 2.14%
viability, T/C (second compound 0.03 µM, first compound 0.949 µM): 2.31%
viability, T/C (second compound 0.03 µM, first compound 3 µM): 2.28%
viability, T/C (second compound 0.03 µM, first compound 9.49 µM): 1.82%
viability, T/C (second compound 0.03 µM, first compound 30 µM): 1.46%
viability, T/C (second compound 0.0949 µM, first compound 0.0949 µM): 2.17%
viability, T/C (second compound 0.0949 µM, first compound 0.3 µM): 1.78%
viability, T/C (second compound 0.0949 µM, first compound 0.949 µM): 1.87%
viability, T/C (second compound 0.0949 µM, first compound 3 µM): 1.93%
viability, T/C (second compound 0.0949 µM, first compound 9.49 µM): 1.76%
viability, T/C (second compound 0.0949 µM, first compound 30 µM): 1.56%
viability, T/C (second compound 0.3 µM, first compound 0.0949 µM): 1.94%
viability, T/C (second compound 0.3 µM, first compound 0.3 µM): 1.89%
viability, T/C (second compound 0.3 µM, first compound 0.949 µM): 1.84%
viability, T/C (second compound 0.3 µM, first compound 3 µM): 1.71%
viability, T/C (second compound 0.3 µM, first compound 9.49 µM): 1.55%
viability, T/C (second compound 0.3 µM, first compound 30 µM): 1.28%

COc1cc2c(cc1O)CCNC21CSC2c3c(OC(C)=O)c(C)c4c(c3C(COC1=O)N1C(O)C3Cc5cc(C)c(OC)c(O)c5C(C21)N3C)OCO4 (stereo not given)
viability, T/C (compound 30 pM): 106% [middle of 10 runs]
viability, T/C (compound 94.9 pM): 107% [middle of 10 runs]
viability, T/C (compound 0.0003 µM): 105% [middle of 10 runs]
viability, T/C (compound 0.000949 µM): 0.29% [middle of 9 runs]
viability, T/C (compound 0.003 µM): 0.17% [middle of 8 runs]
IC50 (compound alone, run of 10/25/2019): 0.548 nM [middle of 9 runs]

From PubChem BioAssay AID1845194 (Molecular Pharmacology Branch, DTP, NCI, 2023)
